Experimental data as given in patent publication US8404651B2, “Compositions and methods for treating viral infections” (priority 2008, dated 2013).
Where “and” joins values, the source holds several entries; their conditions need not be identical. Equal values may be shown once.

How the values were obtained:
[1] = test system: HCV replicon cell line, AVA5 [sub-genomic (CON1), genotype 1b]; test: microbe, parasite or virus in culture; assay type: cell-based; conditions: Hepatitis C virus
Experimental: Primary anti-HCV assay-Antiviral activity against HCV was assessed in a 3-day assay (Okuse, et al., 2005; Antiviral. Res. 65:23; Korba, et al., 2008, Antiviral Res. 77:56) using the stably-expressing HCV replicon cell line, AVA5 [sub-genomic (CON1), genotype 1b](Blight, et al., 2000, Science 290:1972) maintained as sub-confluent cultures on 96-well plates. Antiviral activity was determined by blot hybridization analysis of intracellular HCV RNA (normalized to the level of cellular B-actin RNA in each culture sample). Cytotoxicity was assessed by neutral red dye uptake in cultures maintained in parallel plates.
EC50, EC90, and CC50 values were calculated by linear regression analysis (MS EXCEL®, QUATTROPRO®) using data combined from all treated cultures Korba & Gerin, 1992, Antivir. Res. 19:55; Okuse, et al., 2005, Antivir. Res. 65:23). Standard deviations for EC50 and EC90 values were calculated from the standard errors generated by the regression analyses. […] The Selectivity index (S.I.) was calculated as CC50/EC50. Recombinant human interferon 2b (PBL laboratories, Inc.) was used as an assay control.
For each combination of agents, three concentration ratios, centered on the use of the compounds at equipotent antiviral concentrations, were used. A dilution series (six three-fold-concentration steps, beginning at the approximate EC90) was then generated with the concentration ratio of the two agents remaining the same in each dilution step. Toxicity analysis was performed as described above for the monotherapies. Analysis of drug interactions in the combination studies was determined by the use of the […] program (Biosoft, Inc., Cambridge, United Kingdom). This program evaluates synergy, additivity, or antagonism by use of several methodologies, including that of Chou and Talalay with a statistical analysis employing the Monte Carlo technique to provide confidence limits, fraction-affected-confidence interval (FA-CI) plots, isobolograms, and median-effect plots. (Belenkii, M. S. Schinazi, R. A method for the analysis of combination therapies with statistical analysis. Antiviral Res. 25, 11, 2005).

[2] = MTT cytotoxicity assay, HFF; assay type: cell-based; conditions: human, HFF cells, 24-hour incubation
Experimental: Cellular cytotoxicity profile of the compounds was carried out against a panel of cell lines. Standard MTT assays were performed in 96-well plates using the Promega CellTiter96 Non-radioactive Cell Proliferation Assay Kit in conjunction with a 96-well Plate Reader (ThermoMax, Molecular devices), and MDBK, Vero, and HFF cell lines (obtained from ATCC). Several controls were employed including the nucleoside analogs 3TC, AZT, and ddC, as well as, media without drugs. SDS was used as a positive cytotoxic control. The compounds were tested in triplicate at concentrations of 100, 300, and 1000 μM. Following a 24-hour incubation of cells with the test substance, the MTT assay was carried out.

TA100 = test: In vitro bacterial mutagenicity assay (pre-incubation), strain TA100; conditions: for Number of revertants x1, x2, x3: individual plates
Experimental: Dispense 100 microliter aliquots of the appropriate bacterial cultures into sample tubes stored on ice. Dispense aliquots of the vehicle, positive controls or dose formulations into the appropriate sample tubes. 2 mL top Agar and HBT cap was added to the sample tube, inverted three times and poured into MG plate. The lid was replaced on the plate and left on a level surface to let the agar harden. The plates were incubated in an incubator for 48 to 72 h. The background lawn and count the number of revertants was checked for each plate.

[3] = 14 day tolerability study in uPA SCID (KMT) mouse; assay type: in vivo; conditions: for tolerability: 300 mg/kg once a day by oral gavage for 14 days, KMT mice
Experimental: Two separate groups of animals were treated with vehicle control or with a daily drug dose of 300 mg/kg for 14 days. Blood samples were taken 15 minutes after the drug doses on Day 1 (first dose), Day 7 and Day 14 (last dose) for measurement of the concentration of the drug in the serum of study animals. Body weights and health index scores were monitored daily in order to assess tolerance of the study animals to the dosing procedure and the drug. […] The solution was used to dose animals in a volume of 7.5 ml/kg. The citric acid buffer was also used for dosing of the vehicle control animals.
Ten KMT transgenic animals with low engraftment of human liver cells (hAAT values less than 20 at 6 weeks) were allocated to this study. Individual body weights of animals were recorded prior to treatment and daily during the study. Animals were also evaluated once a day (at morning dose administration) for clinical signs and monitored for morbidity and mortality. The study animals were allocated into 2 groups of 5 animals. Compound 2 or citric acid vehicle control were administered once a day by oral gavage employing a sterile syringe and feeding needle for each animal. Dosing volume was 7.5 mL/kg (150 μL/20 grams body weight) for all groups. The volume was adjusted based on the daily body weight of each individual animal. […] The study started on Day 1 with the first drug dose administered in the morning and continued up to Day 14, the last day of drug treatment. Blood was collected via the central tail artery from all animals of each group on Day 1, fifteen minutes after the first drug dose, on Day 7, fifteen minutes after the drug dose, and on Day 14, fifteen minutes after the last drug dose. The blood samples were allowed to clot and the serum removed from above the clot pellet. Serum samples were stored at −80° C. prior to shipment to the study client. […]
Individual body weights of the animals were recorded prior to treatment and daily during the course of the study. The animals were also evaluated daily for clinical signs and monitored for morbidity and mortality. […]

[4] = TA100, absence of S9, 50 μg/plate
[5] = TA100, absence of S9, 158 μg/plate
[6] = TA100, absence of S9, 500 μg/plate
[7] = TA100, absence of S9, 1581 μg/plate
[8] = TA100, absence of S9, 5000 μg/plate
[9] = TA100, presence of S9, 50 μg/plate
[10] = TA100, presence of S9, 158 μg/plate
[11] = TA100, presence of S9, 500 μg/plate
[12] = TA100, presence of S9, 1581 μg/plate
[13] = TA100, presence of S9, 5000 μg/plate

## COC1C(OP(=O)(OC[C@H]2O[C@@H](n3cnc4c(N)ncnc43)CC2O)SCOC(=O)OC(C)C)[C@@H](CO)O[C@H]1n1ccc(=O)[nH]c1=O (some centres unmarked) [Compound 2, S-isopropylcarbonyloxymethyl thiophosphate (6k) of 3′dApsU2′OMe]
[1]; Ava5, read-out: EC50 HCV type 1B
  EC50: 1 µM
[1]; Ava5, read-out: EC90 HCV type 1B
  EC90: 6 µM
[2]
  CC50 at 24 h: > 1000 µM
TA100; [4]
  Number of revertants mean: 112
  Number of revertants x1, x2, x3: 98 and 112 and 127
TA100; [5]
  Number of revertants mean: 121
  Number of revertants x1, x2, x3: 110 and 133 and 119
TA100; [6]
  Number of revertants mean: 133
  Number of revertants x1, x2, x3: 134 and 127 and 138
TA100; [7]
  Number of revertants mean: 113
  Number of revertants x1, x2, x3: 122 and 107 and 109
TA100; [8]
  Number of revertants mean: 115
  Number of revertants x1, x2, x3: 98 and 126 and 122
TA100; [9]
  Number of revertants mean: 107
  Number of revertants x1, x2, x3: 111 and 109 and 100
TA100; [10]
  Number of revertants mean: 120
  Number of revertants x1, x2, x3: 115 and 133 and 111
TA100; [11]
  Number of revertants mean: 126
  Number of revertants x1, x2, x3: 134 and 137 and 108
TA100; [12]
  Number of revertants mean: 126
  Number of revertants x1, x2, x3: 136 and 122 and 121
TA100; [13]
  Number of revertants mean: 126
  Number of revertants x1, x2, x3: 122 and 130 and 126
[3]; 300 mg/kg daily, Day 1 to Day 14, one animal in the drug group (F187)
  body weight change: small decrease in body weight
[3]
  tolerability: generally well tolerated
[3]; listed as drug
  tolerability: well tolerated
